US20050124562A1, “Bis-quinazoline compounds for the treatment of bacterial infections” (priority 2003, published 2005)
Values after ≈ are worked out from the molar mass of the structure shown. Where two headings read alike, the source gives them in different places.

System: S. aureus, E. faecalis, S. pyogenes and S. pneumoniae
Assay: Broth microdilution MIC (NCCLS), gram-positive strains
Assay type: cell-based
Method: Representative bis-quinazolines were tested for antibacterial activity using the […] microdilution method to determine their minimum inhibitory concentrations (MICs). All compounds were tested using standard methods in accordance with NCCLS guidelines (National Committee for Clinical Laboratory Standards. 2003. Methods for dilution antimicrobial susceptibility testing for bacteria that grow aerobically. Approved Standard M-7 A-6, NCCLS, Wayne, Pa.). The bacterial strains used in the susceptibility tests were obtained from the American Type Culture Collection (ATCC) and included resistant phenotypes such as oxacillin-resistant S. aureus (ORSA) and vancomycin-resistant enterococci (VRE). The minimum bactericidal concentrations (MBCs) were determined for selected organisms. The effect of protein binding on the antibacterial activity of representative bis-quinazolines were determined by conducting MIC tests in the presence of human serum.

[1] = range against some strains of S. aureus, E. faecalis, S. pyogenes and S. pneumoniae, read-out: MIC

Structure (SMILES)	MIC [1] [µg/mL]	MIC [µg/mL]
COc1cc(OC)c2nc(Nc3nc(O)c4cc([N+](=O)[O-])cc(C)c4n3)nc(C)c2c1.O=C(O)C(F)(F)F [Example 67, 2-(6,8-Dimethoxy-4-methyl-quinazolin-2-ylamino)-8-methyl-6-nitro-quinazolin-4-ol trifluoroacetate salt]	0.06 to 16	–
COc1cccc2c(C)nc(Nc3nc(O)c4cc([N+](=O)[O-])cc(C)c4n3)nc12.O=C(O)C(F)(F)F [Example 68, 2-(8-Methoxy-4-methyl-quinazolin-2-ylamino)-8-methyl-6-nitro-quinazolin-4-ol trifluoroacetate salt]	0.06 to 16	–
COCCOc1ccc2nc(Nc3nc(O)c4cc([N+](=O)[O-])cc(C)c4n3)nc(C)c2c1.O=C(O)C(F)(F)F [Example 69, 2-[6-(2-Methoxy-ethoxy)-4-methyl-quinazolin-2-ylamino]-8-methyl-6-nitro-quinazolin-4-ol trifluoroacetate salt]	0.06 to 16	–
COCCOc1ccc2nc(Nc3nc(O)c4cc(N)cc(C)c4n3)nc(C)c2c1.O=C(O)C(F)(F)F [Example 70, 6-Amino-2-[6-(2-methoxy-ethoxy)-4-methyl-quinazolin-2-ylamino]-8-methyl-quinazolin-4-ol trifluoroacetate salt]	0.06 to 16	–
COc1ccc2nc(Nc3nc(O)c4cccc(O)c4n3)nc(C)c2c1.O=C(O)C(F)(F)F [Example 71, 2-(6-Methoxy-4-methyl-quinazolin-2-ylamino)-quinazoline-4,8-diol trifluoroacetate salt]	0.06 to 16	–
COc1cccc2c(C)nc(Nc3nc(O)c4cccc(O)c4n3)nc12.O=C(O)C(F)(F)F [Example 72, 2-(8-Methoxy-4-methyl-quinazolin-2-ylamino)-quinazoline-4,8-diol trifluoroacetate salt]	0.06 to 16	–
COc1ccc2c(C)nc(Nc3nc(O)c4cc(C)cc(C)c4n3)nc2c1OC.O=C(O)C(F)(F)F [Example 73, 2-(7,8-Dimethoxy-4-methyl-quinazolin-2-ylamino)-6,8-dimethyl-quinazolin-4-ol trifluoroacetate salt]	0.06 to 16	–
COc1ccc2c(C)nc(Nc3nc(O)c4ccccc4n3)nc2c1OC.O=C(O)C(F)(F)F [Example 74, 2-(7,8-Dimethoxy-4-methyl-quinazolin-2-ylamino)-quinazolin-4-ol trifluoroacetate salt]	0.06 to 16	–
COc1cc(OC)c2nc(Nc3nc(O)c4cc(C)cc(C)c4n3)nc(C)c2c1.O=C(O)C(F)(F)F [Example 75, 2-(6,8-Dimethoxy-4-methyl-quinazolin-2-ylamino)-6,8-dimethyl-quinazolin-4-ol trifluoroacetate salt]	0.06 to 16	–
COc1cc2c(C)nc(Nc3nc(O)c4cccc(OC)c4n3)nc2cc1N.O=C(O)C(F)(F)F [Example 76, 2-(6-methoxy-7-amino-4-methyl-quinazolin-2-ylamino)-8-methoxy-quinazolin-4-ol trifluoroacetate salt]	0.06 to 16	–
COc1ccc2c(C)nc(Nc3nc(O)c4cccc(OC)c4n3)nc2c1OC.O=C(O)C(F)(F)F [Example 78, 2-(7,8-Dimethoxy-4-methyl-quinazolin-2-ylamino)-8-methoxy-quinazolin-4-ol trifluoroacetate salt]	0.06 to 16	–
COCCOc1cc(OC)cc2c(C)nc(Nc3nc(O)c4cccc(OC)c4n3)nc12.O=C(O)C(F)(F)F [Example 79, 8-Methoxy-2-[6-methoxy-8-(2-methoxy-ethoxy)-4-methyl-quinazolin-2-ylamino]-quinazolin-4-ol trifluoroacetate salt]	0.06 to 16	–
COCCOc1ccc2nc(Nc3nc(O)c4cccc(OC)c4n3)nc(C)c2c1.O=C(O)C(F)(F)F [Example 80, 8-Methoxy-2-[6-(2-methoxy-ethoxy)-4-methyl-quinazolin-2-ylamino]-quinazolin-4-ol trifluoroacetate salt]	0.06 to 16	–
COCCOc1c(OC)ccc2c(C)nc(Nc3nc(O)c4cccc(OC)c4n3)nc12.O=C(O)C(F)(F)F [Example 81, 8-Methoxy-2-[7-methoxy-8-(2-methoxy-ethoxy)-4-methyl-quinazolin-2-ylamino]-quinazolin-4-ol trifluoroacetate salt]	0.06 to 16	–
COc1cccc2c(O)nc(Nc3nc(C)c4ccc5c(c4n3)OCCO5)nc12 [Example 82, 8-Methoxy-2-(8-methyl-2,3-dihydro-1,4-dioxa-5,7-diaza-phenanthren-6-ylamino)-quinazolin-4-ol]	–	0.06 to 16 (≈ 0.153 to 40.9 µM)
COc1cc(OC)c2nc(Nc3nc(O)c4c(OC)ccc(OC)c4n3)nc(C)c2c1.O=C(O)C(F)(F)F [Example 100, 2-(6,8-Dimethoxy-4-methyl-quinazolin-2-ylamino)-5,8-dimethoxy-quinazolin-4-ol trifluoroacetate salt]	0.06 to 16	–
COc1cc2c(C)nc(Nc3nc(O)c4cccc(OC)c4n3)nc2cc1O.O=C(O)C(F)(F)F [Example 103, 2-(4-Hydroxy-8-methoxy-quinazolin-2-ylamino)-6-methoxy-4-methyl-quinazolin-7-ol trifluoroacetate salt]	0.06 to 16	–

Structure (SMILES)	MIC [1] [µg/mL]	MIC [µg/mL]
COc1cc2nc(Nc3nc(O)c4cc(OCCCl)ccc4n3)nc(C)c2cc1OC.O=C(O)C(F)(F)F [Example 105, 6-(2-Chloro-ethoxy)-2-(6,7-dimethoxy-4-methyl-quinazolin-2-ylamino)-quinazolin-4-ol trifluoroacetate salt]	0.06 to 16	–
COc1cc(OC)c2nc(Nc3nc(O)c4cc(OCCCl)ccc4n3)nc(C)c2c1.O=C(O)C(F)(F)F [Example 107, 6-(2-Chloro-ethoxy)-2-(6,8-dimethoxy-4-methyl-quinazolin-2-ylamino)-quinazolin-4-ol trifluoroacetate salt]	0.06 to 16	–
COc1cc2nc(Nc3nc(O)c4c5c(ccc4n3)OCO5)nc(C)c2cc1OC.O=C(O)C(F)(F)F [Example 109, 7-(6,7-Dimethoxy-4-methyl-quinazolin-2-ylamino)-1,3-dioxa-6,8-diaza-cyclopenta[a]naphthalen-9-ol trifluoroacetate salt]	0.06 to 16	–
COc1cc(OC)c2nc(Nc3nc(O)c4c(OC(C)C)cccc4n3)nc(C)c2c1.O=C(O)C(F)(F)F [Example 111, 2-(6,8-Dimethoxy-4-methyl-quinazolin-2-ylamino)-5-isopropoxy-quinazolin-4-ol trifluoroacetate salt]	0.06 to 16	–
CCOc1cccc2nc(Nc3nc(C)c4cc(OC)cc(OC)c4n3)nc(O)c12.O=C(O)C(F)(F)F [Example 112, 2-(6,8-Dimethoxy-4-methyl-quinazolin-2-ylamino)-5-ethoxy-quinazolin-4-ol trifluoroacetate salt]	0.06 to 16	–
COc1cc2nc(Nc3nc(O)c4cc(N5CCOCC5)ccc4n3)nc(C)c2cc1OC.O=C(O)C(F)(F)F [Example 114, 2-(6,7-Dimethoxy-4-methyl-quinazolin-2-ylamino)-6-morpholin-4-yl-quinazolin-4-ol trifluoroacetate salt]	0.06 to 16	–
COc1cc2c(C)nc(Nc3nc(O)c4cccc(OC)c4n3)nc2c(OC)c1OC.O=C(O)C(F)(F)F [Example 116, 8-Methoxy-2-(6,7,8-trimethoxy-4-methyl-quinazolin-2-ylamino)-quinazolin-4-ol trifluoroacetate salt]	0.06 to 16	–
COc1cccc2c(O)nc(Nc3nc(C)c4ccc(F)c(OC)c4n3)nc12.O=C(O)C(F)(F)F [Example 117, 2-(7-Fluoro-8-methoxy-4-methyl-quinazolin-2-ylamino)-8-methoxy-quinazolin-4-ol trifluoroacetate salt]	0.06 to 16	–
COc1cc2c(C)nc(Nc3nc(O)c4cccc(F)c4n3)nc2c(OC)c1OC.O=C(O)C(F)(F)F [Example 118, 8-Fluoro-2-(6,7,8-trimethoxy-4-methyl-quinazolin-2-ylamino)-quinazolin-4-ol trifluoroacetate salt]	0.06 to 16	–
COc1c(F)ccc2c(C)nc(Nc3nc(O)c4cccc(F)c4n3)nc12.O=C(O)C(F)(F)F [Example 119, 8-Fluoro-2-(7-fluoro-8-methoxy-4-methyl-quinazolin-2-ylamino)-quinazolin-4-ol trifluoroacetate salt]	0.06 to 16	–
COc1ccc2nc(Nc3nc(O)c4cc(N)cc(OC)c4n3)nc(C)c2c1.O=C(O)C(F)(F)F [Example 123, 6-Amino-2-(6-methoxy-4-methyl-quinazolin-2-ylamino)-8-methoxy-quinazolin-4-ol trifluoroacetate salt]	0.06 to 16	–
COc1cc(OC)c2nc(Nc3nc(O)c4cc(N)cc(OC)c4n3)nc(C)c2c1.O=C(O)C(F)(F)F [Example 124, 6-Amino-2-(6,8-dimethoxy-4-methyl-quinazolin-2-ylamino)-8-methoxy-quinazolin-4-ol trifluoroacetate salt]	0.06 to 16	–
COc1cc(OC)c2nc(Nc3nc(O)c4cc(N)cc(C)c4n3)nc(C)c2c1.O=C(O)C(F)(F)F [Example 126, 6-Amino-2-(6,8-dimethoxy-4-methyl-quinazolin-2-ylamino)-8-methyl-quinazolin-4-ol trifluoroacetate salt]	0.06 to 16	–
COc1cc2c(C)nc(Nc3nc(O)c4cccc(OC)c4n3)nc2cc1N(C)C.O=C(O)C(F)(F)F [Example 127, 2-(7-Dimethylamino-6-methoxy-4-methyl-quinazolin-2-ylamino)-8-methoxy-quinazolin-4-ol trifluoroacetate salt]	0.06 to 16	–
COc1cc2nc(Nc3nc(O)c4c(N(C)C)cccc4n3)nc(C)c2cc1OC.O=C(O)C(F)(F)F [Example 128, 2-(6,7-Dimethoxy-4-methyl-quinazolin-2-ylamino)-5-dimethylamino-quinazolin-4-ol trifluoroacetate salt]	0.06 to 16	–
COc1cc(OC)c2nc(Nc3nc(O)c4c5c(ccc4n3)OCO5)nc(C)c2c1.O=C(O)C(F)(F)F [Example 130, 7-(6,8-Dimethoxy-4-methyl-quinazolin-2-ylamino)-1,3-dioxa-6,8-diaza-cyclopenta[a]naphthalen-9-ol trifluoroacetate salt]	0.06 to 16	–
